Measurements: ChEMBL document CHEMBL3352258 (J Med Chem, 2014)
In brackets after ≈: the same amount, converted by molar mass. One block for each molecule: values may come before it. Activity calls are given as the source filed them. The calls are words filed in the database; no cut-off is given here.

How the values were obtained:
Mus musculus [1] = assay: Antidiabetic activity in db/db mouse assessed as reduction in blood glucose level at 0.3 mg/kg, po qd administered 1 hr prior glucose challenge measured after 21 days by oral glucose tolerance test; type: functional; set-up: scale not given: the % may be the effect or the level left
Mus musculus [2] = assay: Antidiabetic activity in db/db mouse assessed as reduction in HbA1C level at 3 mg/kg, po qd administered 1 hr prior glucose challenge measured after 21 days by oral glucose tolerance test relative to control; type: functional; set-up: scale not given: the % may be the effect or the level left
Mus musculus [3] = assay: Antidiabetic activity in db/db mouse assessed as reduction in glucose AUC at 30 mg/kg, po qd administered 1 hr prior glucose challenge measured after 21 days by oral glucose tolerance test relative to control; type: functional; set-up: scale not given: the % may be the effect or the level left
HepG2 = assay: Cytotoxicity against human HepG2 cells at 40 uM; type: cell-based; details: hepg2, 40 µM
[4] = AUC in C57BL/6 mouse at 30 mg/kg, po; type: ADME, organism-based; set-up: dose 30 mg/kg, route oral; details: plasma
Mus musculus [5] = assay: Antidiabetic activity in db/db mouse assessed as reduction in glucose AUC at 3 mg/kg, po qd administered 1 hr prior glucose challenge measured after 21 days by oral glucose tolerance test relative to control; type: functional; set-up: scale not given: the % may be the effect or the level left
[6] = Permeability of the compound across human Caco2 cells; type: ADME, cell-based; details: Caco-2, read-out: permeability
[7] = Protein binding in rat plasma; type: ADME, cell-free; details: read-out: PPB
[8] = Permeability of the compound by PAMPA assay; type: ADME; details: read-out: permeability
hERG (KCNH2) = hERG (KCNH2) (Homo sapiens, UniProt Q12809); assay: Inhibition of human ERG at 10 uM by patch clamp assay
[9] = Terminal half life in C57BL/6 mouse at 30 mg/kg, po; type: ADME, organism-based; set-up: dose 30 mg/kg, route oral; details: in vivo, read-out: beta t1/2 (converted)
[10] = Inhibition of cytochrome P450 (unknown origin); type: ADME, Homo sapiens
Mus musculus [11] = assay: Antidiabetic activity in db/db mouse assessed as HbA1C level at 30 mg/kg, po qd administered 1 hr prior glucose challenge measured after 21 days by oral glucose tolerance test (reference value: 2.8%); type: functional
Mus musculus [12] = assay: Antidiabetic activity in db/db mouse assessed as reduction in HbA1C level at 0.3 mg/kg, po qd administered 1 hr prior glucose challenge measured after 21 days by oral glucose tolerance test relative to control; type: functional; set-up: scale not given: the % may be the effect or the level left
[13] = target: T1, Glucose-dependent insulinotropic receptor (Homo sapiens, UniProt Q8TDV5); assay: Agonist activity at human GPR119
T1 sequence (Q8TDV5 whole entry): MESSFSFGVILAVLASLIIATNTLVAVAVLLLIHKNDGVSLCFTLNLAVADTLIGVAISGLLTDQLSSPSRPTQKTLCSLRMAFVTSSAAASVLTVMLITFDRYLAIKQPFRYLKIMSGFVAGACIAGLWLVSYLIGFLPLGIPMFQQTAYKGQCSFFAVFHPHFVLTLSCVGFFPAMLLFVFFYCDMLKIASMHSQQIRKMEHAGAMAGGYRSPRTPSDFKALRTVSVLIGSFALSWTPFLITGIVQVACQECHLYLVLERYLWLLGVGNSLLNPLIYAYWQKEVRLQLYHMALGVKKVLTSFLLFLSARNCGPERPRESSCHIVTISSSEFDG

[14] = target: T2, Glucose-dependent insulinotropic receptor (Homo sapiens) (UniProt Q8TDV5); assay: Intrinsic activity at human GPR119 relative to control
T2 sequence (whole entry): T1 sequence (Q8TDV5 whole entry)

[15] = Solubility of the compound at pH 1; type: physicochemical; details: buffer
[16] = target: T3, Nuclear receptor subfamily 1 group I member 2 (Homo sapiens, UniProt O75469); assay: Activation of PXR (unknown origin); type: ADME
T3 sequence (O75469 whole entry): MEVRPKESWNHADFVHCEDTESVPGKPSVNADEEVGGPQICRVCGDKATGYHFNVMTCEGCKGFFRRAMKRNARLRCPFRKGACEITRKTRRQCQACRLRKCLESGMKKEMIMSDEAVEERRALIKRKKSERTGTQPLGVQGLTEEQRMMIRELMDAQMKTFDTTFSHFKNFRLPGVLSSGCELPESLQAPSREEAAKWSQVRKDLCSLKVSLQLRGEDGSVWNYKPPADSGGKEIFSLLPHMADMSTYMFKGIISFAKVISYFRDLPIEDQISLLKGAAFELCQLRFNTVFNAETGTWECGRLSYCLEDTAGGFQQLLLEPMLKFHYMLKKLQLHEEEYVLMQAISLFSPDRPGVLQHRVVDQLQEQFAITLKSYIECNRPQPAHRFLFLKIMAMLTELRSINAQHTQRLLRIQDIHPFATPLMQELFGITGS

[17] = Cmax in C57BL/6 mouse at 30 mg/kg, po after 2 hrs; type: ADME, organism-based; set-up: dose 30 mg/kg, route oral; details: in vivo
Mus musculus [18] = assay: Antidiabetic activity in db/db mouse assessed as HbA1C level at 300 mg/kg, po qd administered 1 hr prior glucose challenge measured after 21 days by oral glucose tolerance test (reference value: 2.8%); type: functional
Mus musculus [19] = assay: Antidiabetic activity in db/db mouse assessed as reduction in glucose AUC at 300 mg/kg, po qd administered 1 hr prior glucose challenge measured after 21 days by oral glucose tolerance test relative to control; type: functional; set-up: scale not given: the % may be the effect or the level left
Salmonella typhimurium = assay: Genotoxicity in Salmonella typhimurium; type: toxicity, organism-based; details: salmonella enterica subsp. enterica serovar typhimurium
Homo sapiens [20] = assay: Antidiabetic activity in human assessed as increase in total GLP1 AUC at 0.6 mg, po measured on day 1; type: functional
Mus musculus [21] = assay: Antidiabetic activity in C57BL/6J mouse assessed as reduction in glucose AUC at 1 mg/kg, po by oral glucose tolerance test relative to vehicle-treated control; type: functional; set-up: scale not given: the % may be the effect or the level left
Mus musculus [22] = assay: Antidiabetic activity in db/db mouse assessed as reduction in blood glucose level at 0.01 mg/kg, po qd administered 1 hr prior glucose challenge measured after 21 days by oral glucose tolerance test; type: functional; set-up: scale not given: the % may be the effect or the level left
Homo sapiens [23] = assay: Antidiabetic activity in human assessed as reduction in 24 hrs glucose AUC at 0.1 to 120 mg, po measured on day 1; type: functional, organism-based
Mus musculus [24] = assay: Antidiabetic activity in db/db mouse assessed as increase in fasting plasma insulin level at 0.01 to 0.3 mg/kg, po qd administered 1 hr prior glucose challenge measured after 21 days; type: functional, organism-based
[25] = Solubility of the compound at pH 6.5; type: physicochemical; details: buffer
[26] = Protein binding in human plasma; type: ADME, cell-free; details: read-out: PPB (converted)
Homo sapiens [27] = assay: Antidiabetic activity in po dosed human assessed as increase in 24 hrs GLP1 AUC measured on day 1; type: functional, organism-based
Mus musculus [28] = assay: Antidiabetic activity in C57BL/6J mouse assessed as reduction in glucose AUC at 0.3 mg/kg, po by oral glucose tolerance test relative to vehicle-treated control; type: functional; set-up: scale not given: the % may be the effect or the level left
Oryctolagus cuniculus = species on record: Oryctolagus cuniculus; assay: Toxicity in rabbit at plasma concentration 20 uM by electrophysiology study; type: organism-based; details: in vivo
Mus musculus [29] = assay: Antidiabetic activity in C57BL/6J mouse assessed as reduction in glucose AUC at 0.1 mg/kg, po by oral glucose tolerance test relative to vehicle-treated control; type: functional; set-up: scale not given: the % may be the effect or the level left
[30] = Oral bioavailability in Sprague-Dawley rat at 5 mg/kg administered as suspension; type: ADME, organism-based; details: in vivo
[31] = Volume of distribution at steady state in Sprague-Dawley rat at 1 mg/kg, iv; type: ADME, organism-based; set-up: dose 1 mg/kg, route intravenous; details: in vivo, read-out: Vdss
Rattus norvegicus [32] = assay: Tmax in Sprague-Dawley rat at 5 mg/kg, po; type: ADME, organism-based; set-up: dose 5 mg/kg, route oral; details: in vivo
[33] = Clearance in Sprague-Dawley rat at 1 mg/kg, iv; type: ADME, organism-based; set-up: dose 1 mg/kg, route intravenous; details: in vivo
Rattus norvegicus [34] = assay: Stimulation of glucose-induced GLP-1 release in cannulated Sprague-Dawley rat at 0.3 mg/kg, po administered 1 hr prior glucose challenge relative to vehicle-treated control; type: functional, organism-based; set-up: dose 0.3 mg/kg
Cynomolgus monkey = assay: Toxicity in cynomolgus monkey at plasma concentration 20 uM by electrophysiology study; type: organism-based, Macaca fascicularis; details: in vivo
Mus musculus [35] = assay: Antidiabetic activity in C57BL/6J mouse assessed as reduction in glucose AUC at 0.03 mg/kg, po by oral glucose tolerance test relative to vehicle-treated control; type: functional; set-up: scale not given: the % may be the effect or the level left
[36] = Half life in mouse; type: ADME, organism-based; details: in vivo
[37] = Oral bioavailability in Sprague-Dawley rat at 5 mg/kg administered as HMPC SDD formulation; type: ADME, organism-based; details: in vivo
Mus musculus [38] = assay: Antidiabetic activity in db/db mouse assessed as reduction in blood glucose level at 30 mg/kg, po qd administered 1 hr prior glucose challenge measured after 21 days by oral glucose tolerance test; type: functional; set-up: scale not given: the % may be the effect or the level left
Rattus norvegicus [39] = assay: AUC (total) in Sprague-Dawley rat at 5 mg/kg, po; type: ADME, organism-based, Plasma; set-up: dose 5 mg/kg, route oral; details: in vivo
[40] = Solubility of the compound in 50% PEG400/ 50% PBS solution; type: physicochemical
[41] = Terminal half life in human at 0.1 to 120 mg, po; type: ADME, organism-based; details: in vivo, read-out: beta t1/2 (converted)
Rattus norvegicus [42] = assay: Stimulation of glucose-induced GLP-1 release in cannulated Sprague-Dawley rat at 0.3 mg/kg, po administered 1 hr prior glucose challenge in presence of DPP4 inhibitor relative to vehicle-treated control; type: functional, organism-based; set-up: dose 0.3 mg/kg
Rattus norvegicus [43] = assay: Half life in Sprague-Dawley rat at 5 mg/kg, po; type: ADME, organism-based; set-up: dose 5 mg/kg, route oral; details: in vivo
Mus musculus [44] = assay: Antidiabetic activity in db/db mouse assessed as reduction in blood glucose level at 3 mg/kg, po qd administered 1 hr prior glucose challenge measured after 21 days by oral glucose tolerance test; type: functional; set-up: scale not given: the % may be the effect or the level left
Homo sapiens [45] = assay: Toxicity in human at 0.1 to 120 mg, po; type: organism-based; details: in vivo
Rattus norvegicus [46] = assay: Cmax in Sprague-Dawley rat at 5 mg/kg, po; type: ADME, organism-based; set-up: dose 5 mg/kg, route oral; details: in vivo
Homo sapiens [47] = assay: Antidiabetic activity in human assessed as increase in total GLP1 AUC at 10 mg, po measured on day 1; type: functional
[48] = Half life in human liver microsomes; type: ADME
Mus musculus [49] = assay: Antidiabetic activity in db/db mouse assessed as reduction in blood glucose level at 0.03 mg/kg, po qd administered 1 hr prior glucose challenge measured after 21 days by oral glucose tolerance test; type: functional; set-up: scale not given: the % may be the effect or the level left

hERG (KCNH2), sequence (Q12809 whole entry): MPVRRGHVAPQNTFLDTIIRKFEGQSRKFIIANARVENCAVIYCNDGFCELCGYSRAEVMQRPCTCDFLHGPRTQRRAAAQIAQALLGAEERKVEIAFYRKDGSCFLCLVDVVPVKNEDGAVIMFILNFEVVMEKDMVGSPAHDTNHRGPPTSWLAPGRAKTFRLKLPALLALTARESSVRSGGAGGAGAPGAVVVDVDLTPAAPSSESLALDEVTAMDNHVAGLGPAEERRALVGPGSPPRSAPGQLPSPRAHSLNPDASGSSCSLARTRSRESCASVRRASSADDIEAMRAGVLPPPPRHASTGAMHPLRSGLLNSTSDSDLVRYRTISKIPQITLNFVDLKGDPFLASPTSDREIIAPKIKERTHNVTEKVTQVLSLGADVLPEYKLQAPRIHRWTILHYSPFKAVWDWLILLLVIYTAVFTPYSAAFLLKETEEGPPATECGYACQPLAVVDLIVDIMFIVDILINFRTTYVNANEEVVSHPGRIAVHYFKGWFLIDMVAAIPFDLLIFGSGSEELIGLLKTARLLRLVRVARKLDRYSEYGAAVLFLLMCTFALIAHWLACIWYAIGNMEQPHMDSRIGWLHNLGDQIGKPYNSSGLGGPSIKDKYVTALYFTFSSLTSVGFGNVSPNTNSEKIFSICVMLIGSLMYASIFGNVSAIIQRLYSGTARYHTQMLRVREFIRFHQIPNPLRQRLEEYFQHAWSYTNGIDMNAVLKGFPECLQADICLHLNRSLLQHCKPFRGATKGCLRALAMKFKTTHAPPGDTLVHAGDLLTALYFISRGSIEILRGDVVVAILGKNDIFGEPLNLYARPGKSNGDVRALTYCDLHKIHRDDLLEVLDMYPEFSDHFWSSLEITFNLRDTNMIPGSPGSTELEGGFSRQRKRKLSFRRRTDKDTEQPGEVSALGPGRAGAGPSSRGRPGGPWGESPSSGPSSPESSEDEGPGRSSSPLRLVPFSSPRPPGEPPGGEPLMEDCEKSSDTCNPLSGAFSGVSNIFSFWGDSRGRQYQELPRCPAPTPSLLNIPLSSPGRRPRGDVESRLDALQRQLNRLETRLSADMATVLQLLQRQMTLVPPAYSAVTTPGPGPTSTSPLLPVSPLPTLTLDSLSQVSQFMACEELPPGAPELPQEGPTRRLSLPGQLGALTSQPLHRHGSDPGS

- AUC [4]: 245 µM·h
- Papp [6]: 220 nm/s
- fraction unbound [7]: 0.01
- Papp [8]: 320 nm/s
- half-life [9]: 2.4 h
- IC50 [10]: > 40 µM
- EC50 [13]: 0.018 µM
- Intrinsic activity [14]: 1
- solubility [15]: 0.63 mg/mL (≈ 1290 µM)
- EC50 [16]: > 50 µM
- Cmax [17]: 38.6 µM
Compound: CCCc1cnc(N2CCC(Oc3ccn(-c4ccc(S(C)(=O)=O)cc4F)c(=O)c3)CC2)nc1
- Activity (Mus musculus [1]): 16%
- Activity (Mus musculus [2]): 0.4%
- Activity (Mus musculus [3]): 38%
- Activity (HepG2): Non-toxic
- Activity (Mus musculus [5]): 32%
- inhibition at 10 µM (hERG (KCNH2)): 47%
- Activity (Mus musculus [11]): 1.4%
- Activity (Mus musculus [12]): 0.6%

Compound: CN(C)C(=N)NC(=N)N [METFORMIN]
- Activity (Mus musculus [18]): 1.4%
- Activity (Mus musculus [19]): 83%

- solubility [25]: < 0.001 mg/mL
- fraction unbound [26]: 0.005
- bioavailability [30]: 33%
- Vd [31]: 2.2 L/kg
- Tmax (Rattus norvegicus [32]): 4 h
- clearance [33]: 0.09 L/h/kg
- IC50 [10]: > 40 µM
- half-life [36]: 0.25 h
- bioavailability [37]: 87%
- AUC (Rattus norvegicus [39]): 95 µM·h
- solubility [40]: 0.041 mg/mL (≈ 79.9 µM)
- half-life [41]: 36 h
- EC50 [13]: 0.014 µM
- t1/2 (Rattus norvegicus [43]): 0.367 h
- EC50 [16]: > 50 µM
- Cmax (Rattus norvegicus [46]): 2.7 µM
- half-life [48]: 1.4 h
Compound: CS(=O)(=O)c1ccc(-n2cc(Cl)c(OC3CCN(c4ncc(Cl)cn4)CC3)cc2=O)c(F)c1 [BMS-903452]
- Activity (Salmonella typhimurium): Non-toxic
- Activity (Homo sapiens [20]): 20%
- Activity (Mus musculus [21]): 40%
- Activity (Mus musculus [22]): 18%
- Activity (Homo sapiens [23]): inactive
- Activity (Mus musculus [24]): Active
- Activity (Homo sapiens [27]): Dose-dependent effect
- Activity (Mus musculus [28]): 39%
- Activity (Oryctolagus cuniculus): Non-toxic
- Activity (HepG2): Non-toxic
- Activity (Mus musculus [29]): 37%
- Activity (Rattus norvegicus [34]): Active
- Activity (Cynomolgus monkey): Non-toxic
- Activity (Mus musculus [35]): 14%
- Activity (Mus musculus [38]): 38%
- Activity (Rattus norvegicus [42]): Active
- Activity (Mus musculus [44]): 13%
- Activity (Homo sapiens [45]): Non-toxic
- Activity (Homo sapiens [47]): 50%
- Activity (Mus musculus [49]): 36%
